# Experimental data from patent US7105730B1, “Nucleic acid molecules and other molecules associated with sterol synthesis and metabolism” (Monsanto Technology L.L.C., priority 1999, dated 2006).
# System: HES1 (YOR237W) transcript in wild type yeast LPY9
# Assay: Yeast transcript profiling by array hybridization after ketoconazole treatment
# Format: cell-based, Saccharomyces cerevisiae
# Conditions: yeast LPY9, array of yeast ORF sequences; SEQ ID NO: 5
# Procedure: The yeast strain LPY9 (MATa, leu2, Ura3, his3) is grown overnight and inoculated into SD+ hul (histidine, uracil, leucine) media. Aliquots of the culture are treated with ketoconazole (an inhibitor of C-14α demethylase (P45014DM) enzyme) at 10 ug/ml, 50 ug/ml, and […], respectively. A sample of each is collected at 2, 4, and 6 hours after treatment. Control samples treated with DMSO (dimethyl sulfoxide-solvent for ketoconazole) but not with ketoconazole are also collected. Total RNA from each sample is collected by conventional methods, such as a Zirconium/Silica bead binding and extraction method. The sequence content of each sample is analyzed and compared by hybridizing each of them to a number of yeast ORF sequences immobilized on a Nylon membrane in an array format.
# Using this method, over 600 RNA transcripts levels are shown to be altered.
smiles,measurement,value
CC(=O)N1CCN(c2ccc(OCC3COC(Cn4ccnc4)(c4ccc(Cl)cc4Cl)O3)cc2)CC1 (stereo not shown) [ketoconazole],Effect of ketoconazole addition on yeast HES1 transcript level,particularly effected
